In PubChem BioAssay AID1845217 (Molecular Pharmacology Branch, DTP, NCI, 2023):

System: VA-ES-BJ tumor spheroid viability
Assay: Anticancer human tumor VA-ES-BJ cell line growth inhibition;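 note: spheroids exposed to compounds for seven days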;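 for viability, T/C: percent of DMSO vehicle control viability so 100% = untreated growth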
Settings: spheroids with HUVEC and MSC; for IC50: curve of first compound; for viability, T/C: stronger effect = lower value
Method in brief: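 Complex spheroids of malignant cells with endothelial cells and mesenchymal stem cells; agents alone or combined, from near clinical Cmax (or 10 microM if unknown) down in half-log steps, 0.25% DMSO final.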

[1] = second compound 30 pM, first compound 0.00949 µM
[2] = second compound 30 pM, first compound 0.03 µM
[3] = second compound 30 pM, first compound 0.0949 µM
[4] = second compound 30 pM, first compound 0.3 µM
[5] = second compound 30 pM, first compound 0.949 µM
[6] = second compound 30 pM, first compound 3 µM
[7] = second compound 94.9 pM, first compound 0.00949 µM
[8] = second compound 94.9 pM, first compound 0.03 µM
[9] = second compound 94.9 pM, first compound 0.0949 µM
[10] = second compound 94.9 pM, first compound 0.3 µM
[11] = second compound 94.9 pM, first compound 0.949 µM
[12] = second compound 94.9 pM, first compound 3 µM
[13] = second compound 0.0003 µM, first compound 0.00949 µM
[14] = second compound 0.0003 µM, first compound 0.03 µM
[15] = second compound 0.0003 µM, first compound 0.0949 µM
[16] = second compound 0.0003 µM, first compound 0.3 µM
[17] = second compound 0.0003 µM, first compound 0.949 µM
[18] = second compound 0.0003 µM, first compound 3 µM
[19] = second compound 0.000949 µM, first compound 0.00949 µM
[20] = second compound 0.000949 µM, first compound 0.03 µM
[21] = second compound 0.000949 µM, first compound 0.0949 µM
[22] = second compound 0.000949 µM, first compound 0.3 µM
[23] = second compound 0.000949 µM, first compound 0.949 µM
[24] = second compound 0.000949 µM, first compound 3 µM
[25] = second compound 0.003 µM, first compound 0.00949 µM
[26] = second compound 0.003 µM, first compound 0.03 µM
[27] = second compound 0.003 µM, first compound 0.0949 µM
[28] = second compound 0.003 µM, first compound 0.3 µM
[29] = second compound 0.003 µM, first compound 0.949 µM
[30] = second compound 0.003 µM, first compound 3 µM

| Structure (SMILES) | IC50 (second compound 30 pM) | IC50 (second compound 94.9 pM) | IC50 (second compound 0.0003 µM) | IC50 (second compound 0.000949 µM) | IC50 (second compound 0.003 µM) | viability, T/C [3] | viability, T/C [4] | viability, T/C [5] | viability, T/C [6] | viability, T/C [9] | viability, T/C [10] | viability, T/C [11] | viability, T/C [12] | viability, T/C [15] | viability, T/C [16] | viability, T/C [17] | viability, T/C [18] | viability, T/C [21] | viability, T/C [22] | viability, T/C [23] | further results |
| --- | --- | --- | --- | --- | --- | --- | --- | --- | --- | --- | --- | --- | --- | --- | --- | --- | --- | --- | --- | --- | --- |
| CNCc1ccc(-c2cc(-c3nc(-c4ccc(S(=O)(=O)C(C)C)cc4)cnc3N)on2)cc1 + COc1cc2c(cc1O)CCNC21CSC2c3c(OC(C)=O)c(C)c4c(c3C(COC1=O)N1C(O)C3Cc5cc(C)c(OC)c(O)c5C(C21)N3C)OCO4 | 260 nM | 122 nM | < 9.49 nM | < 9.49 nM | < 9.49 nM | 82.8% | 45.7% | 7.78% | 1.72% | 51.1% | 34.1% | 6.4% | 1.3% | 36.5% | 23.9% | 5.48% | 1.1% | 4.65% | 1.83% | 0.95% | viability, T/C [1]: 91.9%; viability, T/C [2]: 90%; viability, T/C [7]: 85.9%; viability, T/C [8]: 79.8%; viability, T/C [13]: 47.9%; viability, T/C [14]: 44.7%; viability, T/C [19]: 3.65%; viability, T/C [20]: 3.36%; viability, T/C [24]: 1.89%; viability, T/C [25]: 1.45%; viability, T/C [26]: 1.2%; viability, T/C [27]: 0.99%; viability, T/C [28]: 1.37%; viability, T/C [29]: 1.15%; viability, T/C [30]: 0.13% |
| Cc1sc2c(c1C)C(c1ccc(Cl)cc1)=NC(CC(=O)Nc1ccc(O)cc1)c1nnc(C)n1-2 (stereo not given) + COc1cc2c(cc1O)CCNC21CSC2c3c(OC(C)=O)c(C)c4c(c3C(COC1=O)N1C(O)C3Cc5cc(C)c(OC)c(O)c5C(C21)N3C)OCO4 | 78 nM | 58.6 nM | < 9.49 nM | < 9.49 nM | < 9.49 nM | 48.9% | 27.4% | 24% | 17.5% | 42.3% | 27.3% | 21.3% | 10.5% | 23.7% | 13.7% | 6.9% | 2.06% | 5.43% | 1.01% | 0.08% | viability, T/C [1]: 83.6%; viability, T/C [2]: 65.8%; viability, T/C [7]: 79.4%; viability, T/C [8]: 60.9%; viability, T/C [13]: 38.7%; viability, T/C [14]: 32.4%; viability, T/C [19]: 8.09%; viability, T/C [20]: 2.88%; viability, T/C [24]: 0.14%; viability, T/C [25]: 1.18%; viability, T/C [26]: 1.31%; viability, T/C [27]: 1.36%; viability, T/C [28]: 1.87%; viability, T/C [29]: 2.19%; viability, T/C [30]: 3.69% |
| Cn1ncnc1[C@H]1c2n[nH]c(=O)c3cc(F)cc(c23)N[C@@H]1c1ccc(F)cc1 + COc1cc2c(cc1O)CCNC21CSC2c3c(OC(C)=O)c(C)c4c(c3C(COC1=O)N1C(O)C3Cc5cc(C)c(OC)c(O)c5C(C21)N3C)OCO4 | 329 nM | 155 nM | < 9.49 nM | < 9.49 nM | < 9.49 nM | 67.9% | 54.9% | 29.8% | 6.51% | 52.8% | 42.1% | 24% | 6.18% | 23.9% | 19.7% | 8.26% | 4.82% | 2.49% | 3.23% | 1.4% | viability, T/C [1]: 92.8%; viability, T/C [2]: 79.3%; viability, T/C [7]: 67.8%; viability, T/C [8]: 70.4%; viability, T/C [13]: 33.9%; viability, T/C [14]: 29.3%; viability, T/C [19]: 3.64%; viability, T/C [20]: 3.04%; viability, T/C [24]: 0.45%; viability, T/C [25]: 1.48%; viability, T/C [26]: 1.15%; viability, T/C [27]: 1.53%; viability, T/C [28]: 2.52%; viability, T/C [29]: 1.19%; viability, T/C [30]: 2.91% |
| O=C(c1cc(Cc2n[nH]c(=O)c3ccccc23)ccc1F)N1CCN(C(=O)C2CC2)CC1 + COc1cc2c(cc1O)CCNC21CSC2c3c(OC(C)=O)c(C)c4c(c3C(COC1=O)N1C(O)C3Cc5cc(C)c(OC)c(O)c5C(C21)N3C)OCO4 | 19000 nM | 11100 nM | < 94.9 nM | < 94.9 nM | < 94.9 nM | 86% | 95.8% | 99% | 91% | 90.5% | 84.7% | 86.9% | 76.9% | 44.3% | 40.7% | 43.6% | 33.2% | 3.35% | 2.46% | 3.04% | viability, T/C (second compound 30 pM, first compound 9.49 µM): 65%; viability, T/C (second compound 30 pM, first compound 30 µM): 40.1%; viability, T/C (second compound 94.9 pM, first compound 9.49 µM): 54.1%; viability, T/C (second compound 94.9 pM, first compound 30 µM): 24.4%; viability, T/C (second compound 0.0003 µM, first compound 9.49 µM): 16.1%; viability, T/C (second compound 0.0003 µM, first compound 30 µM): 5.05%; viability, T/C [24]: 2.86%; viability, T/C (second compound 0.000949 µM, first compound 9.49 µM): 1.46%; viability, T/C (second compound 0.000949 µM, first compound 30 µM): 0.33%; viability, T/C [27]: 1.2%; viability, T/C [28]: 1.64%; viability, T/C [29]: 1.77%; viability, T/C [30]: 2.03%; viability, T/C (second compound 0.003 µM, first compound 9.49 µM): 3.45%; viability, T/C (second compound 0.003 µM, first compound 30 µM): 4.01% |
